From patent US10723741B1, “DNA polymerase IIIC inhibitors and use thereof” (Acurx Pharmaceuticals, LLC, priority 2018, dated 2020)
≈ marks a conversion by molar mass, not a printed value.

Assays:
Type in all cases: cell-based
[1] = tested on: Staphylococcus aureus ATCC 29213 (MSSA); experiment: Broth microdilution MIC, S. aureus ATCC 29213 (MSSA); details: broth microdilution, 37° C., 20 hours, read-out: MIC S. aureus ATCC 29213 (MSSA)
Procedure, shortened: (§1)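 Two-fold dilutions from 64 to 0.0625 μg/ml final, 1% DMSO, were inoculated at ~5.0×10^5 cfu/ml in the strain's test medium and kept 20 h at 37 °C in ambient atmosphere. Colonies were grown on MHA, with S. pneumoniae on blood agar under 5% CO2.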

[2] = tested on: Staphylococcus aureus NRS384 (MRSA); experiment: Broth microdilution MIC, S. aureus NRS384 (MRSA); parameters: MIC NRS 384 (MRSA): unit not given here; details: broth microdilution, 37° C., 20 hours; for MIC: Staphylococcus aureus, read-out: MIC NRS 384 (MRSA)
Procedure, shortened: as §1

[3] = tested on: Enterococcus faecalis ATCC 29212; experiment: Broth microdilution MIC, E. faecalis ATCC 29212; details: ATCC29212, broth microdilution, 37° C., 20 hours, read-out: MIC E. faecalis ATCC 29212
Procedure, shortened: as §1

[4] = tested on: Escherichia coli ATCC 25922; experiment: Broth microdilution MIC, E. coli ATCC 25922 (MHIIB w & w/o 4 mM EDTA); details: broth microdilution, 37° C., 20 hours; for MIC: Escherichia coli, ATCC25922, without EDTA, read-out: MIC E. coli ATCC 25922; for MIC E. coli ATCC 25922 + 4 mM EDTA: with 4 mM EDTA
Procedure, shortened: as §1

[5] = tested on: Enterococcus faecium ATCC 700221 (VRE); experiment: Broth microdilution MIC, E. faecium ATCC 700221 (VRE); parameters: MIC E. faecium ATCC 700221 (VRE): unit: ug/mL; details: broth microdilution, 37° C., 20 hours; for MIC: Enterococcus faecium, read-out: MIC E. faecium ATCC 700221 (VRE)
Procedure, shortened: as §1

[6] = tested on: Streptococcus pneumoniae ATCC 49619; experiment: Broth microdilution MIC, S. pneumoniae ATCC 49619; details: ATCC49619, broth microdilution, 37° C., 20 hours, read-out: MIC S. pneumoniae ATCC 49619
Procedure, shortened: as §1

[7] = tested on: Bacillus subtilis ATCC 6633; experiment: Broth microdilution MIC, B. subtilis ATCC 6633; details: ATCC6633, broth microdilution, 37° C., 20 hours, read-out: MIC B. subtilis ATCC 6633
Procedure, shortened: as §1

SMILES | MIC [1] | MIC [2] | MIC [3] | MIC [4] | MIC E. coli ATCC 25922 + 4 mM EDTA [4] | MIC [5] | MIC [6] | MIC [7] | MIC NRS 384 (MRSA) [2] | MIC E. faecium ATCC 700221 (VRE) [5]
O=c1[nH]c(NCc2ccc(Cl)c(Cl)c2)nc2cnn(CCS(=O)(=O)CCO)c12 [Compound 164, 5-((3,4-dichlorobenzyl)amino)-1-(2-((2-hydroxyethyl)sulfonyl)ethyl)-1H-pyrazolo[4,3-d]pyrimidin-7(6H)-one] | 32 µg/mL (≈ 71.7 µM) | 64 µg/mL (≈ 143 µM) | 32 µg/mL (≈ 71.7 µM) | > 64 µg/mL | >64 µg/mL | 16 µg/mL (≈ 35.8 µM) | 4 µg/mL (≈ 8.96 µM) | 16 µg/mL (≈ 35.8 µM) | – | –
CS(=O)(=O)NC(=O)Cn1ncc2nc(NCc3ccc(Cl)c(Cl)c3)[nH]c(=O)c21 [Compound 165, 2-(5-((3,4-dichlorobenzyl)amino)-7-oxo-6,7-dihydro-1H-pyrazolo[4,3-d]pyrimidin-1-yl)-N-(methylsulfonyl)acetamide] | > 64 µg/mL | > 64 µg/mL | > 64 µg/mL | > 64 µg/mL | >64 µg/mL | > 64 µg/mL | > 64 µg/mL | > 64 µg/mL | – | –
CC(C)(C)OC(=O)N1CCN(CCOCCn2ncc3nc(NCc4ccc(Cl)c(Cl)c4)[nH]c(=O)c32)CC1 [Compound 166, tert-butyl 4-[2-[2-[5-[(3,4-dichlorophenyl)methylamino]-7-oxo-6H-pyrazolo[4,3-d]pyrimidin-1-yl]ethoxy]ethyl]piperazine-1-carboxylate] | > 64 µg/mL | > 64 µg/mL | > 64 µg/mL | > 64 µg/mL | >64 µg/mL | 8 µg/mL (≈ 14.1 µM) | 16 µg/mL (≈ 28.2 µM) | 4 µg/mL (≈ 7.06 µM) | – | –
O=c1[nH]c(NCc2ccc(Cl)c(Cl)c2)nc2cnn(CCOCCCO)c12 [Compound 168, 5-[(3,4-dichlorophenyl)methylamino]-1-[2-(3-hydroxypropoxy)ethyl]-6H-pyrazolo[4,3-d]pyrimidin-7-one] | 8 µg/mL (≈ 19.4 µM) | 8 µg/mL (≈ 19.4 µM) | 8 µg/mL (≈ 19.4 µM) | > 64 µg/mL | >64 µg/mL | 4 µg/mL (≈ 9.7 µM) | 8 µg/mL (≈ 19.4 µM) | 4 µg/mL (≈ 9.7 µM) | – | –
O=c1[nH]c(NCc2ccc(Cl)c(Cl)c2)nc2cnn(CCCOCCO)c12 [Compound 169, 5-[(3,4-dichlorophenyl)methylamino]-1-[3-(2-hydroxyethoxy)propyl]-6H-pyrazolo[4,3-d]pyrimidin-7-one] | 8 µg/mL (≈ 19.4 µM) | 8 µg/mL (≈ 19.4 µM) | 8 µg/mL (≈ 19.4 µM) | > 64 µg/mL | >64 µg/mL | 4 µg/mL (≈ 9.7 µM) | 8 µg/mL (≈ 19.4 µM) | 2 µg/mL (≈ 4.85 µM) | – | –
Cl.O=c1[nH]c(NCc2ccc(Cl)c(Cl)c2)nc2cnn(CCOc3cccnc3)c12 [Compound 170, 5-((3,4-dichlorobenzyl)amino)-1-(2-(pyridin-3-yloxy)ethyl)-1H-pyrazolo[4,3-d]pyrimidin-7(6H)-one hydrochloride] | 4 µg/mL | – | 4 µg/mL | > 64 µg/mL | >64. ug/ml | – | 8 µg/mL | 1 µg/mL | 2/2 | 4/1
O=c1[nH]c(NCc2ccc(Cl)c(Cl)c2)nc2cnn(Cc3coc(CO)n3)c12 [Compound 171, 5-((3,4-dichlorobenzyl)amino)-1-((2-(hydroxymethyl)oxazol-4-yl)methyl)-1H-pyrazolo[4,3-d]pyrimidin-7(6H)-one] | 32 µg/mL (≈ 76 µM) | 16 µg/mL (≈ 38 µM) | 16 µg/mL (≈ 38 µM) | > 64 µg/mL | >64 µg/mL | 8 µg/mL (≈ 19 µM) | 8 µg/mL (≈ 19 µM) | 4 µg/mL (≈ 9.5 µM) | – | –
CN1CCCC(c2nc(Cn3ncc4nc(NCc5ccc(Cl)c(Cl)c5)[nH]c(=O)c43)co2)C1.Cl (stereo not shown) [Compound 172, 5-((3,4-dichlorobenzyl)amino)-1-((2-(1-methylpiperidin-3-yl)oxazol-4-yl)methyl)-1H-pyrazolo[4,3-d]pyrimidin-7(6H)-one hydrochloride] | 16 µg/mL | 16 µg/mL | 16 µg/mL | > 64 µg/mL | 64 µg/mL | 8 µg/mL | 8 µg/mL | 4 µg/mL | – | –
Cl.O=c1[nH]c(NCc2ccc(Cl)c(Cl)c2)nc2cnn(Cc3coc(C4CCCNC4)n3)c12 (stereo not shown) [Compound 173, 5-((3,4-dichlorobenzyl)amino)-1-((2-(piperidin-3-yl)oxazol-4-yl)methyl)-1H-pyrazolo[4,3-d]pyrimidin-7(6H)-one hydrochloride] | 32 µg/mL | 32 µg/mL | 32 µg/mL | > 64 µg/mL | 64 µg/mL | 32 µg/mL | 8 µg/mL | 8 µg/mL | – | –
Cl.O=c1[nH]c(NCc2ccc(Cl)c(Cl)c2)nc2cnn(CCOc3ccc(CO)nc3)c12 [Compound 174, 5-((3,4-dichlorobenzyl)amino)-1-(2-((6-(hydroxymethyl)pyridin-3-yl)oxy)ethyl)-1H-pyrazolo[4,3-d]pyrimidin-7(6H)-one hydrochloride] | 8 µg/mL | – | 8 µg/mL | > 64 µg/mL | >64 µg/mL | – | 8 µg/mL | 2 µg/mL | 8/8 | 2/2
Cl.O=C(O)c1ccc(OCCn2ncc3nc(NCc4ccc(Cl)c(Cl)c4)[nH]c(=O)c32)cn1 [Compound 175, 5-(2-(5-((3,4-dichlorobenzyl)amino)-7-oxo-6,7-dihydro-1H-pyrazolo[4,3-d]pyrimidin-1-yl)ethoxy)picolinic acid hydrochloride] | > 64 µg/mL | > 64 µg/mL | > 64 µg/mL | > 64 µg/mL | >64 µg/mL | > 64 µg/mL | > 64 µg/mL | > 64 µg/mL | – | –
COCCN1CC(Cn2ncc3nc(NCc4ccc(Cl)c(Cl)c4)[nH]c(=O)c32)CC1=O (stereo not shown) [Compound 176, 5-((3,4-dichlorobenzyl)amino)-1-((1-(2-methoxyethyl)-5-oxopyrrolidin-3-yl)methyl)-1H-pyrazolo[4,3-d]pyrimidin-7(6H)-one] | 16 µg/mL (≈ 34.4 µM) | 16 µg/mL (≈ 34.4 µM) | 8 µg/mL (≈ 17.2 µM) | > 64 µg/mL | >64 µg/mL | 4 µg/mL (≈ 8.6 µM) | 4 µg/mL (≈ 8.6 µM) | 4 µg/mL (≈ 8.6 µM) | – | –
O=C1CC(Cn2ncc3nc(NCc4ccc(Cl)c(Cl)c4)[nH]c(=O)c32)CN1CCO (stereo not shown) [Compound 177, 5-((3,4-dichlorobenzyl)amino)-1-((1-(2-hydroxyethyl)-5-oxopyrrolidin-3-yl)methyl)-1H-pyrazolo[4,3-d]pyrimidin-7(6H)-one] | 64 µg/mL (≈ 142 µM) | 64 µg/mL (≈ 142 µM) | 32 µg/mL (≈ 70.9 µM) | > 64 µg/mL | >64 µg/mL | 16 µg/mL (≈ 35.5 µM) | 4 µg/mL (≈ 8.86 µM) | 16 µg/mL (≈ 35.5 µM) | – | –
O=c1[nH]c(NCc2ccc(Cl)c(Cl)c2)nc2cnn(CCOC3COC3)c12 [Compound 178, 5-((3,4-Dichlorobenzyl)amino)-1-(2-(oxetan-3-yloxy)ethyl)-1H-pyrazolo[4,3-d]pyrimidin-7(6H)-one] | 4 µg/mL (≈ 9.75 µM) | – | 8 µg/mL (≈ 19.5 µM) | > 64 µg/mL | >64 µg/mL | – | 4 µg/mL (≈ 9.75 µM) | 2 µg/mL (≈ 4.87 µM) | 4/4 | 4/4
O=c1[nH]c(NCc2ccc(Cl)c(Cl)c2)nc2cnn(CCCOC3CC(O)C3)c12 (stereo not shown) [Compound 179, 5-((3,4-dichlorobenzyl)amino)-1-(3-(3-hydroxycyclobutoxy)propyl)-1H-pyrazolo[4,3-d]pyrimidin-7(6H)-one] | 8 µg/mL (≈ 18.3 µM) | 4 µg/mL (≈ 9.13 µM) | 4 µg/mL (≈ 9.13 µM) | > 64 µg/mL | >64 µg/mL | 2 µg/mL (≈ 4.56 µM) | 4 µg/mL (≈ 9.13 µM) | 1 µg/mL (≈ 2.28 µM) | – | –
Cl.Cl.O=c1[nH]c(NCc2ccc(Cl)c(Cl)c2)nc2cnn(C3CCN(c4ccncc4)C3)c12 (stereo not shown) [Compound 180, 5-((3,4-Dichlorobenzyl)amino)-1-(1-(pyridin-4-yl)pyrrolidin-3-yl)-1H-pyrazolo[4,3-d]pyrimidin-7(6H)-one dihydrochloride] | 8 µg/mL | – | 8 µg/mL | 64 µg/mL | 16 µg/mL | – | 4 µg/mL | 2 µg/mL | 4/4 | 4/4
Cl.O=c1[nH]c(NCc2ccc(Cl)c(Cl)c2)nc2cnn(CCOCc3cccnc3)c12 [Compound 181, 5-((3,4-Dichlorobenzyl)amino)-1-(2-(pyridin-3-ylmethoxy)ethyl)-1H-pyrazolo[4,3-d]pyrimidin-7(6H)-one hydrochloride] | 4 µg/mL | – | 8 µg/mL | > 64 µg/mL | >64. ug/ml | – | 4 µg/mL | 1 µg/mL | 4/2 | 4/1
